According to PubChem BioAssay (NCI):
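48-hour exposure; five concentrations; linearly interpolated endpoints. GI50 is the concentration that inhibits growth by half. The concentration for full growth arrest is given as TGI.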

Columns and labels:
Assay in all cases: NCI anticancer screen, dose series, 48 h
NCI/ADR-RES ovarian = test system: NCI/ADR-RES ovarian
A549 NSCLC = test system: A549 NSCLC
OVCAR-4 ovarian = test system: OVCAR-4 ovarian
U251 CNS = test system: U251 CNS
SK-MEL-5 melanoma = test system: SK-MEL-5 melanoma
PC-3 prostate = test system: PC-3 prostate
SK-MEL-2 melanoma = test system: SK-MEL-2 melanoma
SF-539 CNS = test system: SF-539 CNS
HT29 colon = test system: HT29 colon
HCT-116 colon = test system: HCT-116 colon

| Compound | TGI (NCI/ADR-RES ovarian) [µM] | TGI (A549 NSCLC) [µM] | TGI (OVCAR-4 ovarian) [µM] | TGI (U251 CNS) [µM] | TGI (SK-MEL-5 melanoma) [µM] | TGI (PC-3 prostate) [µM] | TGI (SK-MEL-2 melanoma) [µM] | TGI (SF-539 CNS) [µM] | TGI (HT29 colon) [µM] | TGI (HCT-116 colon) [µM] | GI50 (NCI/ADR-RES ovarian) [µM] | GI50 (A549 NSCLC) [µM] | GI50 (OVCAR-4 ovarian) [µM] | GI50 (U251 CNS) [µM] | GI50 (SK-MEL-5 melanoma) [µM] | GI50 (PC-3 prostate) [µM] | GI50 (SF-539 CNS) [µM] | GI50 (HT29 colon) [µM] | GI50 (HCT-116 colon) [µM] | GI50 (SK-MEL-2 melanoma) [µM] |
| --- | --- | --- | --- | --- | --- | --- | --- | --- | --- | --- | --- | --- | --- | --- | --- | --- | --- | --- | --- | --- |
| N#CC(C(=O)O)C(c1c(Cl)cccc1Cl)C(C#N)C(=O)O (stereo not given) | > 100 | > 100 | > 100 | > 100 | > 100 | > 100 | > 100 | > 100 | > 100 | > 100 |  |  |  |  |  |  |  |  |  |  |
| S=C1SCN(C2CCCCCCCCCCC2)CN1C1CCCCCCCCCCC1 | > 100 | > 100 | > 100 | > 100 | > 100 | > 100 | > 100 | > 100 | > 100 | > 100 |  |  |  |  |  |  |  |  |  |  |
| CC(=O)OC1(C#N)CC2OC1C1N=NN(C(=O)OC(C)(C)C)C21 (stereo not given) |  |  | > 31.6 | > 100 | > 31.6 |  | > 100 | > 100 | > 100 | 15.5 |  |  |  |  |  |  |  |  |  |  |
| COc1cccc(NC(=O)c2ccc(NC3=C(Cl)C(=O)N(Cc4ccccc4)C3=O)cc2)c1 | 29.8 | 38 | > 100 | 19.9 | 26.9 | 28.5 |  | 31 | 17.4 | 28.3 | 16.3 | 13.6 | 22 | 7.12 | 14 | 13.1 | 17.3 | 5.74 | 15 |  |
| Cc1ccc(-c2cc(=O)c3cc(C)c(C)c(C(=O)O)c3o2)cc1[N+](=O)[O-] |  | > 100 | > 100 | > 100 | > 100 |  | > 100 | > 100 | > 100 | > 100 |  |  |  |  |  |  |  |  |  |  |
| COC(=O)c1ccc(/C=C/S(=O)(=O)c2ccccc2)cc1 |  | > 100 | > 100 | > 100 | > 100 |  | > 100 | > 100 | > 100 | > 100 |  |  |  |  |  |  |  |  |  |  |
| C[C@H](C(O)CC(=O)C(C)(C)O)[C@H]1CC[C@@]2(C)[C@@H]3CC[C@H]4C(C)(C)[C@@H](OC5OC(COC6OC(CO)C(O)C(O)C6O)C(O)C(O)C5O)CC[C@]4(C)C3=CC[C@]12C (stereo not given in full) |  | > 100 | > 100 | > 100 | > 100 | > 100 | > 100 | > 100 | > 100 | > 100 |  |  |  |  |  |  |  |  |  |  |
| CC(C)Cc1ccc(C(C)/C=C2\CCC(CN3CCCCC3)C2=O)cc1 (stereo not given) |  | 39.9 | 14.2 | 4.94 | 27 | 17.5 | 27 | 11.4 | 15.9 | 12.7 |  |  |  |  |  |  |  |  |  |  |
| CCCCCN(CCCCC)C(=O)[C@H](CCC(=O)OCc1ccccc1)NC(=O)c1cc2ccccc2[nH]1 |  | > 100 | > 100 | > 100 |  |  | > 100 | > 100 | > 100 | > 100 |  |  |  |  |  |  |  |  |  |  |
| CC(CCC(=O)O)c1ccc(Br)cc1 (stereo not given) |  | > 100 | > 100 | > 100 | > 100 |  | > 100 |  | > 100 | > 100 |  |  |  |  |  |  |  |  |  |  |
| CCN(CC)CCC(=O)N1C/C(=C/c2ccccc2)C(=O)/C(=C\c2ccccc2)C1 |  | 17.1 | 6.04 | 1.9 | 3.98 | 2.9 | 5.08 | 10.8 | 2.24 | 1.02 |  |  |  |  |  |  |  |  |  |  |
| N.N.NCCCCCN.O=C([O-])CC(=O)[O-].O=C([O-])CC(=O)[O-].[Pt+4].[Pt+4] |  | > 100 |  | > 100 | > 100 |  | > 100 | > 100 | > 100 | > 100 |  | > 100 |  | > 100 | > 100 |  | 77.4 | > 100 | > 100 | > 100 |
| N/C(=N\N=C\c1ccc(O)c(O)c1)NO |  | > 100 | > 100 | > 100 | > 100 |  | > 100 | > 100 | > 100 | > 100 |  |  |  |  |  |  |  |  |  |  |
| CC1(C)Oc2ccccc2[N+]([O-])=C1c1ccccc1 |  | > 100 | > 100 | > 100 | > 100 |  |  | > 100 | > 100 | > 100 |  |  |  |  |  |  |  |  |  |  |
| CCOc1ccc(N=Cc2ccc3ccccc3n2)cc1 |  | > 100 | > 100 | > 100 | > 100 |  | > 100 | > 100 | > 100 | > 100 |  |  |  |  |  |  |  |  |  |  |
| COc1ccc2c(c1)c(-c1ccc(-c3cn(C)c4ccc(OC)cc34)o1)cn2C | 16.6 | > 100 | 4.08 | 13.4 | 22.8 |  | 5.28 | 9.27 | > 100 | > 100 | 3.86 | 18.4 | 2.06 | 3.66 | 10.4 |  | 2.47 | 22 | 88 | 2.13 |
| Fc1ccc2c(c1)cc1ccc3cccc4ccc2c1c34 |  | > 100 | > 100 | > 100 | > 100 |  | > 100 | > 100 | > 100 | > 100 |  |  |  |  |  |  |  |  |  |  |
| CCOC(=O)NC(=O)c1cn(C2OC(COC(=O)CCCCCCCCC(=O)OCC3OC(n4cc(C(=O)NC(=O)OCC)c(=O)[nH]c4=O)C4OC(C)(C)OC34)C3OC(C)(C)OC32)c(=O)[nH]c1=O (stereo not given) |  | > 100 | > 100 |  | > 100 |  | > 100 | > 100 | > 100 | > 100 |  |  |  |  |  |  |  |  |  |  |
| COc1ccc(/C=C2\CCc3ccccc3C2=O)cc1OC |  | > 100 | 79.6 | > 100 | 30.9 |  | 83.9 | 65.9 | > 100 | 36.7 |  |  |  |  |  |  |  |  |  |  |
| Nc1nc(CC2(O)CCCCC2)cc(-c2ccccc2)n1 |  | > 72.4 | > 76.8 | > 100 | > 57.4 |  | > 64.8 | > 100 | > 49.2 | > 51 |  |  |  |  |  |  |  |  |  |  |
| O=C(COC(=O)c1cccc2c(=O)c3ccccc3[nH]c12)Nc1ccc(S(=O)(=O)Nc2ncccn2)cc1 |  | > 100 | > 100 | 56.3 | > 100 |  |  | 39.1 | > 100 | > 100 |  |  |  |  |  |  |  |  |  |  |
